From publication PMC6213879, “Synthesis and Biological Evaluation of Novel Dehydroabietic Acid-Oxazolidinone Hybrids for Antitumor Properties” (International Journal of Molecular Sciences, 2018) come the findings set out here.

What all share (assay type): cell-based
Common to all, as to details: mean ± SD from three independent experiments

Assay [1] deals with CNE-2 human nasopharyngeal carcinoma cell line. In words: MTT cytotoxicity assay, CNE-2. The method, then:
(§1) The in vitro antiproliferative activity of the DHAA derivatives 3a–o and 4a–o against four human cancer cell lines (MGC-803 human gastric cancer cell line, CNE-2 human nasopharyngeal carcinoma cell line, SK-OV-3 human ovarian carcinoma cell line, NCI-H460 human lung cancer cell line) and the human normal liver cell line LO2 were evaluated by MTT (methyl thiazolytetrazolium) assay and compared with the parent compound DHAA and the positive control cisplatin in each panel.
(§2) The cytotoxicity of the compounds was evaluated against NCI-H460, MGC-803, SK-OV-3, CNE-2 and LO2 using an MTT assay. Cells were grown on 96-well micro-plates at a density of 4 × 10^3 cells per well in DMEM (dulbecco’s modified eagle medium) medium with 10% FBS (fetal bovine serum). The plates were incubated at 37 °C with 5% CO2. The cells were then exposed to different concentrations of target compounds and cisplatin and incubated for another 48 h. Control wells were formed by culture media with the maximum concentration of DMSO used in each assay (1‰). The cells were stained with 20 µL of MTT in an incubator for about 4 h. The medium was thrown away and replaced by […] DMSO. The absorbance (OD) value was read at 490 nm on an enzyme labeling instrument. Each experiment was repeated at least three times to obtain the mean values.

The subject of assay [2] is human normal liver cell line LO2. The experiment in a line: MTT cytotoxicity assay, normal LO2 cells. The method, then: as §1, §2
(Tetrazolium assays rely on reduction of a dye to a coloured formazan, in cell work by metabolically active cells.)

In assay [3] the test system is NCI-H460 human lung cancer cell line. The experiment in a line: MTT cytotoxicity assay, NCI-H460. The method, then:
as §1, §2

The test system of assay [4] is SK-OV-3 human ovarian carcinoma cell line. The experiment in a line: MTT cytotoxicity assay, SK-OV-3. The method, then: as §1, §2
Assay [5] has as its system MGC-803 human gastric cancer cell line. In words: MTT cytotoxicity assay, MGC-803. The method, then:
as §1, §2

What is called IC50 is the concentration that inhibits the measured activity by half. A higher IC50 goes with weaker potency. Consider `N.N.[Cl][Pt][Cl]` [cisplatin, reference compound], for which the 50% inhibitory concentration (IC50) in assay [1] (48 h) was 21 ± 2.25 µM; in assay [2] (48 h), 36.4 ± 0.79 µM; in assay [3] (48 h), 24.1 ± 1.74 µM; in assay [4] (48 h) it was 10.4 ± 0.25 µM; in assay [5] (48 h), 14.9 ± 1.78 µM.
Take `Cc1ccc(N2CC(COC(=O)[C@]3(C)CCC[C@]4(C)c5ccc(C(C)C)cc5CCC34)OC2=O)cc1` (stereo partly drawn) [Compound 4d, (1R,4aS)-(3-(4-Methylphenyl)-2-Oxooxazolidin-5-yl)Methyl-7-Isopropyl-1,4a-Dimethyl-1,2,3,4,4a,9,10,10a-Octahydrophenanthrene-1-Carboxylate]: the IC50 in assay [1] (Homo sapiens, CNE-2, 48 h) is 21.1 ± 1.96 µM; in assay [2] (Homo sapiens, L02, 48 h), 30.6 ± 1.99 µM; in assay [3] (Homo sapiens, NCI-H460, 48 h), 2.91 ± 2.38 µM; in assay [4] (Homo sapiens, SK-OV-3, 48 h) it was 19.7 ± 1.33 µM; in assay [5] (Homo sapiens, MGC-803, 48 h) it was 5.97 ± 0.87 µM.
For the molecule `CC(C)c1ccc2c(c1)CC[C@H]1[C@](C)(C(=O)O)CCC[C@]21C` [DHA, Dehydroabietic acid], the IC50 in assay [1] (Homo sapiens, CNE-2, 48 h) was 62.6 ± 1.6 µM; in assay [2] (Homo sapiens, L02, 48 h), > 100 µM; in assay [3] (Homo sapiens, NCI-H460, 48 h), > 100 µM; in assay [4] (Homo sapiens, SK-OV-3, 48 h) it was > 100 µM; in assay [5] (Homo sapiens, MGC-803, 48 h) it was 29.8 ± 2.06 µM.
Consider `CC(C)c1ccc2c(c1)CCC1[C@](C)(C(=O)OCC3CN(c4ccccc4F)C(=O)O3)CCC[C@]21C` (stereo partly drawn) [Compound 4h, (1R,4aS)-(3-(2-Fluorophenyl)-2-Oxooxazolidin-5-yl)Methyl-7-Isopropyl-1,4a-Dimethyl-1,2,3,4,4a, 9,10,10a-Octahydrophenanthrene-1-Carboxylate], for which the IC50 was > 100 µM in assay [1] (Homo sapiens, CNE-2, 48 h); > 100 µM in assay [2] (Homo sapiens, L02, 48 h); > 100 µM in assay [3] (Homo sapiens, NCI-H460, 48 h); > 100 µM in assay [4] (Homo sapiens, SK-OV-3, 48 h); 49.9 ± 1.14 µM in assay [5] (Homo sapiens, MGC-803, 48 h).
`CC(C)c1ccc2c(c1)CCC1[C@](C)(C(=O)OCC(O)CNc3ccc(Cl)cc3)CCC[C@]21C` (stereo partly drawn) [Compound 3l, (1R,4aS)-2-Hydroxy-3-(4-Chlorophenylamino)Propyl-7-Isopropyl-1,4a-Dimethyl-1,2,3,4,4a,9,10, 10a-Octahydrophenanthrene-1-Carboxylate]: the IC50 in assay [1] (Homo sapiens, CNE-2, 48 h) was > 100 µM; in assay [2] (Homo sapiens, L02, 48 h), > 100 µM; in assay [3] (Homo sapiens, NCI-H460, 48 h), > 100 µM; in assay [4] (Homo sapiens, SK-OV-3, 48 h), > 100 µM; in assay [5] (Homo sapiens, MGC-803, 48 h), 34.48 ± 0.02 µM.
On to `C#Cc1cccc(NCC(O)COC(=O)[C@]2(C)CCC[C@]3(C)c4ccc(C(C)C)cc4CCC23)c1` (stereo partly drawn) [Compound 3o, (1R,4aS)-2-Hydroxy-3-(3-Ethynylphenylamino)Propyl-7-Isopropyl-1,4a-Dimethyl-1,2,3,4,4a,9, 10,10a-Octahydrophenanthrene-1-Carboxylate], for which the 50% inhibitory concentration (IC50) in assay [1] (Homo sapiens, CNE-2, 48 h) is 20 ± 1.09 µM; in assay [2] (Homo sapiens, L02, 48 h), > 100 µM; in assay [3] (Homo sapiens, NCI-H460, 48 h), 22.3 ± 2.74 µM; in assay [4] (Homo sapiens, SK-OV-3, 48 h) it was 23.1 ± 2.23 µM; in assay [5] (Homo sapiens, MGC-803, 48 h), 13.4 ± 5.41 µM.
For `COc1ccccc1N1CC(COC(=O)[C@]2(C)CCC[C@]3(C)c4ccc(C(C)C)cc4CCC23)OC1=O` (stereo partly drawn) [Compound 4e, (1R,4aS)-(3-(2-Methoxyphenyl)-2-Oxooxazolidin-5-yl)Methyl-7-Isopropyl-1,4a-Dimethyl-1,2,3,4,4a,9,10,10a-Octahydrophenanthrene-1-Carboxylate], in that order: 20.5 ± 0.97 µM, 40.6 ± 1.96 µM, 7.99 ± 6.35 µM, > 100 µM and 13.2 ± 1.15 µM.
On the same counts, the results for `COc1ccccc1NCC(O)COC(=O)[C@]1(C)CCC[C@]2(C)c3ccc(C(C)C)cc3CCC12` (stereo partly drawn) [Compound 3e, (1R,4aS)-2-Hydroxy-3-(2-Methoxyphenylamino)Propyl-7-Isopropyl-1,4a-Dimethyl-1,2,3,4,4a,9, 10,10a-Octahydrophenanthrene-1-Carboxylate] are 27.4 ± 0.51 µM, 32.3 ± 1.56 µM, 26.1 ± 1.92 µM, 19.5 ± 2.23 µM and 28.5 ± 1.35 µM.
Consider `Cc1ccccc1N1CC(COC(=O)[C@]2(C)CCC[C@]3(C)c4ccc(C(C)C)cc4CCC23)OC1=O` (stereo partly drawn) [Compound 4b, (1R,4aS)-(3-(2-Methylphenyl)-2-Oxooxazolidin-5-yl)Methyl-7-Isopropyl-1,4a-Dimethyl-1,2,3,4,4a,9,10,10a-Octahydrophenanthrene-1-Carboxylate], for which the IC50 in assay [1] (Homo sapiens, CNE-2, 48 h) was > 100 µM; in assay [2] (Homo sapiens, L02, 48 h) it was > 100 µM; in assay [3] (Homo sapiens, NCI-H460, 48 h), 27.7 ± 5.03 µM; in assay [4] (Homo sapiens, SK-OV-3, 48 h), > 100 µM; in assay [5] (Homo sapiens, MGC-803, 48 h), 25 ± 5.02 µM.
For the molecule `COc1cccc(N2CC(COC(=O)[C@]3(C)CCC[C@]4(C)c5ccc(C(C)C)cc5CCC34)OC2=O)c1` (stereo partly drawn) [Compound 4f, (1R,4aS)-(3-(3-Methoxyphenyl)-2-Oxooxazolidin-5-yl)Methyl-7-Isopropyl-1,4a-Dimethyl-1,2,3,4,4a,9,10,10a-Octahydrophenanthrene-1-Carboxylate], the IC50 in assay [1] (Homo sapiens, CNE-2, 48 h) is 23.5 ± 1.2 µM; in assay [2] (Homo sapiens, L02, 48 h), > 100 µM; in assay [3] (Homo sapiens, NCI-H460, 48 h), 17.2 ± 1.38 µM; in assay [4] (Homo sapiens, SK-OV-3, 48 h), 43 ± 1.05 µM; in assay [5] (Homo sapiens, MGC-803, 48 h), 19.7 ± 2.8 µM.
On the same counts, the results for `CC(C)c1ccc2c(c1)CCC1[C@](C)(C(=O)OCC(O)CNc3ccc(F)cc3)CCC[C@]21C` (stereo partly drawn) [Compound 3j, (1R,4aS)-2-Hydroxy-3-(4-Fluorophenylamino)Propyl-7-Isopropyl-1,4a-Dimethyl-1,2,3,4,4a,9,10, 10a-Octahydrophenanthrene-1-Carboxylate] are 20.7 ± 2.31 µM, 28.7 ± 0.55 µM, 15.6 ± 1.45 µM, 18.9 ± 1.66 µM and 14.2 ± 1.7 µM.
On the same counts, the results for `CC(C)c1ccc2c(c1)CCC1[C@](C)(C(=O)OCC3CN(c4ccccc4)C(=O)O3)CCC[C@]21C` (stereo partly drawn) [Compound 4a, (1R,4aS)-(2-Oxo-3-Phenyloxazolidin-5-yl)Methyl-7-Isopropyl-1,4a-Dimethyl-1,2,3,4,4a,9,10,10a-Octahydrophenanthrene-1-Carboxylate] are 9.69 ± 0.13 µM, > 100 µM, 4.83 ± 0.77 µM, > 100 µM and 11 ± 4.41 µM.
On the same counts, the results for `Cc1cccc(N2CC(COC(=O)[C@]3(C)CCC[C@]4(C)c5ccc(C(C)C)cc5CCC34)OC2=O)c1` (stereo partly drawn) [Compound 4c, (1R,4aS)-(3-(3-Methylphenyl)-2-Oxooxazolidin-5-yl)Methyl-7-Isopropyl-1,4a-Dimethyl-1,2,3,4,4a,9,10,10a-Octahydrophenanthrene-1-Carboxylate] are 31.96 ± 0.23 µM, 36.2 ± 2.68 µM, 9.13 ± 2.77 µM, > 100 µM and 10.5 ± 1.44 µM.
Consider `CC(C)c1ccc2c(c1)CCC1[C@](C)(C(=O)OCC3CN(c4ccc(Br)cc4)C(=O)O3)CCC[C@]21C` (stereo partly drawn) [Compound 4n, (1R,4aS)-(3-(4-Bromophenyl)-2-Oxooxazolidin-5-yl)Methyl-7-Isopropyl-1,4a-Dimethyl-1,2,3,4,4a,9,10,10a-Octahydrophenanthrene-1-Carboxylate], for which the IC50 in assay [1] (Homo sapiens, CNE-2, 48 h) was 42.5 ± 5.68 µM; in assay [2] (Homo sapiens, L02, 48 h), > 100 µM; in assay [3] (Homo sapiens, NCI-H460, 48 h), 30.2 ± 2.66 µM; in assay [4] (Homo sapiens, SK-OV-3, 48 h) it was > 100 µM; in assay [5] (Homo sapiens, MGC-803, 48 h), 5.34 ± 3.45 µM.
With `CC(C)c1ccc2c(c1)CCC1[C@](C)(C(=O)OCC3CN(c4cccc(Cl)c4)C(=O)O3)CCC[C@]21C` (stereo partly drawn) [Compound 4k, (1R,4aS)-(3-(3-Chlorophenyl)-2-Oxooxazolidin-5-yl)Methyl-7-Isopropyl-1,4a-Dimethyl-1,2,3,4,4a,9,10,10a-Octahydrophenanthrene-1-Carboxylate], the 50% inhibitory concentration (IC50) in assay [1] (Homo sapiens, CNE-2, 48 h) stood at 31.2 ± 2.5 µM; in assay [2] (Homo sapiens, L02, 48 h), 37.2 ± 3.14 µM; in assay [3] (Homo sapiens, NCI-H460, 48 h), 23 ± 2.62 µM; in assay [4] (Homo sapiens, SK-OV-3, 48 h), 10.3 ± 5.46 µM; in assay [5] (Homo sapiens, MGC-803, 48 h), 7.43 ± 1.42 µM.
Take `CC(C)c1ccc2c(c1)CCC1[C@](C)(C(=O)OCC(O)CNc3cccc(F)c3)CCC[C@]21C` (stereo partly drawn) [Compound 3i, (1R,4aS)-2-Hydroxy-3-(3-Fluorophenylamino)Propyl-7-Isopropyl-1,4a-Dimethyl-1,2,3,4,4a,9,10, 10a-Octahydrophenanthrene-1-Carboxylatev]: the IC50 in assay [1] (Homo sapiens, CNE-2, 48 h) was > 100 µM; in assay [2] (Homo sapiens, L02, 48 h), > 100 µM; in assay [3] (Homo sapiens, NCI-H460, 48 h), > 100 µM; in assay [4] (Homo sapiens, SK-OV-3, 48 h), > 100 µM; in assay [5] (Homo sapiens, MGC-803, 48 h) it was > 100 µM.
`CC(C)c1ccc2c(c1)CCC1[C@](C)(C(=O)OCC(O)CNc3ccccc3F)CCC[C@]21C` (stereo partly drawn) [Compound 3h, (1R,4aS)-2-Hydroxy-3-(2-Fluorophenylamino)Propyl-7-Isopropyl-1,4a-Dimethyl-1,2,3,4,4a,9,10, 10a-Octahydrophenanthrene-1-Carboxylate]: the IC50 was 45.7 ± 5.8 µM in assay [1] (Homo sapiens, CNE-2, 48 h); > 100 µM in assay [2] (Homo sapiens, L02, 48 h); 30.2 ± 3.4 µM in assay [3] (Homo sapiens, NCI-H460, 48 h); > 100 µM in assay [4] (Homo sapiens, SK-OV-3, 48 h); 17.5 ± 3.51 µM in assay [5] (Homo sapiens, MGC-803, 48 h).
Take `COc1ccc(NCC(O)COC(=O)[C@]2(C)CCC[C@]3(C)c4ccc(C(C)C)cc4CCC23)cc1` (stereo partly drawn) [Compound 3g, (1R,4aS)-2-Hydroxy-3-(4-Methoxyphenylamino)Propyl-7-Isopropyl-1,4a-Dimethyl-1,2,3,4,4a,9, 10,10a-Octahydrophenanthrene-1-Carboxylate]: the concentration for half-maximal inhibition (IC50) in assay [1] (Homo sapiens, CNE-2, 48 h) is > 100 µM; in assay [2] (Homo sapiens, L02, 48 h), > 100 µM; in assay [3] (Homo sapiens, NCI-H460, 48 h) it was > 100 µM; in assay [4] (Homo sapiens, SK-OV-3, 48 h), > 100 µM; in assay [5] (Homo sapiens, MGC-803, 48 h), 51.7 ± 1.85 µM.
